Data: ChEMBL document CHEMBL5385844, “Discovery of novel imidazole chemotypes as isoform-selective JNK3 inhibitors for the treatment of Alzheimer's disease” (Eur J Med Chem, 2023)
pIC50: −log10 of the molar value. Calls of active or inactive are those of the source. The calls are words filed in the database; no cut-off is given here.

Tests used:
[1] = biological target: Mitogen-activated protein kinase 10 (Homo sapiens, UniProt P53779); assay: Inhibition of human JNK3 incubated for 40 mins in presence of ATP and [gamma33P-ATP] by scintillation counting method; conditions: for pIC50: read-out: IC50
[2] = biological target: T1, Mitogen-activated protein kinase 8 (Homo sapiens, UniProt P45983); assay: Inhibition of human JNK1 incubated for 40 mins in presence of ATP and [gamma33P-ATP] by scintillation counting method
[3] = biological target: T2, Mitogen-activated protein kinase 9 (Homo sapiens, UniProt P45984); assay: Inhibition of human JNK2 incubated for 40 mins in presence of ATP and [gamma33P-ATP] by scintillation counting method
Cortical neurone = assay: Neuroprotective activity against Amyloid beta (1 to 42)-induced toxicity in rat cortical neuron assessed as cell viability measured after 24 to 48 hrs by MTT assay; format: functional, cell-based; conditions: time 24-48 hrs
[4] = biological target: T1, Mitogen-activated protein kinase 8; assay: Inhibition of JNK1 (unknown origin) by ATP-competitive assay
[5] = biological target: T2, Mitogen-activated protein kinase 9; assay: Inhibition of JNK2 (unknown origin) by ATP-competitive assay

Mitogen-activated protein kinase 10, sequence (P53779 whole entry): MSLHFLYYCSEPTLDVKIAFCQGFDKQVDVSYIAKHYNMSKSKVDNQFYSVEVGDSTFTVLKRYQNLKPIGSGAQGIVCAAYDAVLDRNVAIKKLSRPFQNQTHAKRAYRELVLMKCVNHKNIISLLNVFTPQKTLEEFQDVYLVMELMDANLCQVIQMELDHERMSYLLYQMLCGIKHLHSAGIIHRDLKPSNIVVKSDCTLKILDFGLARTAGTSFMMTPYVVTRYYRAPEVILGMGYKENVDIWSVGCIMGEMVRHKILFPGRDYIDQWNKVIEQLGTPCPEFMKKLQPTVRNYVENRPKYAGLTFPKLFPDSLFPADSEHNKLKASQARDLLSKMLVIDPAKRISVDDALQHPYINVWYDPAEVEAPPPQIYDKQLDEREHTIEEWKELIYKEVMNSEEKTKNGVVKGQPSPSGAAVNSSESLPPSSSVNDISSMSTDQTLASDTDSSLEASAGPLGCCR
T2 sequence (P45984 whole entry): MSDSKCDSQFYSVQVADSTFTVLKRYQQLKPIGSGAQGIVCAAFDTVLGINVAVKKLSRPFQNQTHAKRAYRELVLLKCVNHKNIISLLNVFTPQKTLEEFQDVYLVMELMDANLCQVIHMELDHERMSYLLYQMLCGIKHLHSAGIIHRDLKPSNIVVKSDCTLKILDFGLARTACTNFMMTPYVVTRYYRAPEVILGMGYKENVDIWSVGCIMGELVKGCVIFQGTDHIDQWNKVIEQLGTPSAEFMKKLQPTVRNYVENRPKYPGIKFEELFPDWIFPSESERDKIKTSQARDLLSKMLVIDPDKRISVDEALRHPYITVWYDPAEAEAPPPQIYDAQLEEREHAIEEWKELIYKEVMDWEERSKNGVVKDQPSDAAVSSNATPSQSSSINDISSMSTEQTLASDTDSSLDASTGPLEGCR
T1 sequence (P45983 whole entry): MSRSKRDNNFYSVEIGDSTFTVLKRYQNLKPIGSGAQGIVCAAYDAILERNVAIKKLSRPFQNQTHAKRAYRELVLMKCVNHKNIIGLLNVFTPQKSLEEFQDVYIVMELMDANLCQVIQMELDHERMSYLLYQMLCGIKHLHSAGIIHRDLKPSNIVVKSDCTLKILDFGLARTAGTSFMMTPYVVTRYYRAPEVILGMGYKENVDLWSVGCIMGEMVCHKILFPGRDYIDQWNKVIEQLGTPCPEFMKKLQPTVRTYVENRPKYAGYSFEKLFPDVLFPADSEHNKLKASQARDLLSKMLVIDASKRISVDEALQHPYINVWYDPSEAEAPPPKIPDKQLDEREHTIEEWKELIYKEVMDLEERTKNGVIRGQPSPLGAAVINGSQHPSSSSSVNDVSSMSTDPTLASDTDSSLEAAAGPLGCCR

C[C@@H](O)CNc1nccc(-n2c(CC#N)cnc2-c2ccc(Cl)c(Cl)c2)n1
pIC50 [1]: 5.17

N#CCc1cnc(C2=CC3OCOC3C=C2)n1-c1ccnc(N[C@H]2CCCN(C(=O)C3CC3)C2)n1 (stereo not given in full)
pIC50 [1]: 7.26

N#CCc1cnc(-c2ccc3ccccc3c2)n1-c1ccnc(N[C@@H]2CCCN(C(=O)C3CC3)C2)n1
pIC50 [1]: 8.30
pIC50 [2]: 6.68
pIC50 [3]: 7.18

N#CCc1cnc(-c2ccc(F)c(C(F)(F)F)c2)n1-c1ccnc(N[C@H]2CCCN(C(=O)C3CC3)C2)n1
pIC50 [1]: 5.48

N#CCc1cnc(-c2ccc3ccccc3c2)n1-c1ccnc(Nc2cccc(C(=O)C3CC3)c2)n1
pIC50 [1]: 8.15
pIC50 [2]: 5.76
pIC50 [3]: 6.54

C[C@@H](O)CNc1nccc(-n2c(CC#N)cnc2-c2ccc3c(c2)OCCO3)n1
pIC50 [1]: 5.01

N#CCc1cnc(-c2ccc(F)c(C(F)(F)F)c2)n1-c1ccnc(NC2CCCCC2)n1
pIC50 [1]: 5.00

N#CCc1cnc(-c2ccc3ccccc3c2)n1-c1ccnc(NC2CCCCC2)n1
pIC50 [1]: 6.85

N#CCc1cnc(-c2ccc(Cl)c(Cl)c2)n1-c1ccnc(N[C@H]2CCCNC2)n1
pIC50 [1]: 4.88

N#CCc1cnc(-c2ccc3occc3c2)n1-c1ccnc(N[C@H]2CCCN(C(=O)C3CC3)C2)n1
pIC50 [1]: 8.21
pIC50 [2]: 6.45
pIC50 [3]: 6.57

N#CCc1cnc(-c2ccc(F)c(C(F)(F)F)c2)n1-c1ccnc(NC2CCOCC2)n1
pIC50 [1]: 6.38

N#CCc1cnc(-c2ccc3c(c2)OCCO3)n1-c1ccnc(NC2CCOCC2)n1
pIC50 [1]: < 5.00

N#CCc1cnc(-c2ccc3ccccc3n2)n1-c1ccnc(NC2CCCCC2)n1
pIC50 [1]: < 5.00

Oc1ccc(/C=C/c2cc(O)cc(O)c2)cc1
Activity (Cortical neurone): Active

N#CCc1cnc(-c2ccc3ccccc3c2)n1-c1ccnc(N[C@H]2CCCNC2)n1
pIC50 [1]: < 5.00

N#CCc1cnc(-c2ccc(F)c(C(F)(F)F)c2)n1-c1ccnc(N[C@H]2CCCNC2)n1
IC50 [1]: Not Active

N#CCc1cnc(-c2ccc3ccccc3n2)n1-c1ccnc(NC2CCOCC2)n1
pIC50 [1]: 4.87

CC(C)(C)C(=O)N1CCC[C@H](Nc2nccc(-n3c(CC#N)cnc3-c3ccc(Cl)c(Cl)c3)n2)C1
pIC50 [1]: 8.10
pIC50 [2]: 6.35
pIC50 [3]: 7.09

O=C1c2ccccc2C2=NNC3=CC=CC1C32 (stereo not given)
pIC50 [4]: 7.40
pIC50 [5]: 7.40

N#CCc1cnc(C2=CC3OCCOC3C=C2)n1-c1ccnc(N[C@H]2CCCN(C(=O)C3CC3)C2)n1 (stereo not given in full)
pIC50 [1]: 5.82

N#CCc1cnc(-c2ccc3ccccc3n2)n1-c1ccnc(N[C@H]2CCCNC2)n1
pIC50 [1]: < 5.00
